Measurements reported in patent US10149809B2, “Skin aging inhibitor and concentrate of resveratrol 3-O-α-glucoside” (priority 2014, dated 2018).
≈ marks a conversion by molar mass, not a printed value.

How the values were obtained:
[1] = system: skin model (MEL-312B; MatTek); experiment: Melanogenesis suppressing effect in skin model (amount of melanin, visual observation); type: cell-based; conditions: 0.2 wt % in PBS, 50 μL, 16 days; PBS control group = 100%
Description: Resveratrol 3-O-α-glucoside, resveratrol (Tokyo Chemical Industry Co., Ltd.), or resveratrol 3-O-β-glucoside (Tokyo Chemical Industry Co., Ltd.) was prepared into a 0.2 wt % solution or suspension with the addition of PBS, and the resulting solution or suspension was used as a test substance. A skin model (MEL-312B; MatTek) was used, and 50 μL of the test substance was added to the horny layer side of the skin model and cultured in a special medium (EPI-100NMM-113; MatTek) at 37° C. for 16 days. On days 2, 4, 7, 9, 11, and 14, the medium and the test substance were replaced with fresh ones. As a control group, the same operation was performed using PBS instead of the test substance.
After 16 days of culture, the skin model was visually observed, and the amount of melanin in the skin model was evaluated. The amount of melanin was measured using the following method. Initially, the collected skin model was subjected to enzymatic degradation by proteinase-K, and was subsequently homogenated in PBS containing 1% triton X-100. Melanin was then extracted by washing with 10% TCA and ethanol. Next, the extracted melanin was dissolved in 0.5 mL of 1N-NaOH containing 10% DMSO at 80° C. for 2 hours, and the amount of melanin was quantified by measuring absorbance at 470 nm.
Resveratrol 3-O-α-glucoside was prepared into a 0.2 wt % solution, a 0.1 wt % solution, or a 0.01 wt % solution with the addition of PBS. The resulting solution was used as a test substance, and the melanogenesis suppressing effect was evaluated using the same method as that of Example 1 above. […]

[2] = system: skin model (EPI-200X; MatTek); type: in vitro ADME, human; conditions: human, 20 h, 0.2 wt %
Description: Using a three-dimensional human skin model, permeabilities of resveratrol 3-O-α-glucoside and resveratrol into the skin model when administered via the skin surface were compared.
Resveratrol 3-O-α-glucoside or resveratrol (Tokyo Chemical Industry Co., Ltd.) was prepared into a 0.2 wt % solution or suspension with the addition of PBS, and the resulting solution was used as a test substance. The skin model (EPI-200X; MatTek) was loaded into a special fixture (EPI-100-FIX; MatTek), and placed in the 6-well plate of the receiver. One-hundred microliters of the test substance were added to the horny layer side, and 5 mL of PBS was added to the receiver side. After being allowed to stand at 37° C. for 20 hours, the skin model was collected, and the surface of the skin model was washed well with PBS. The skin model after being washed was homogenized in PBS. After the homogenate was centrifuged, resveratrols in the supernatant were quantified using HPLC under the same conditions as described in Production Example 1 above, and the amount of resveratrols was converted into the equivalent of agly cones.

[3] = Solubility in solvent containing dipropylene glycol; type: physicochemical; conditions: 25 °C, water, thermodynamic from solid
Description: (§1) Approximately 40 mg each of resveratrol 3-O-α-glucoside, resveratrol (Tokyo Chemical Industry Co., Ltd.), and resveratrol 3-O-β-glucoside (Tokyo Chemical Industry Co., Ltd.) was weighed, approximately 70 mg of a solvent (whose composition is shown in Table 18) containing ethanol (Wako Pure Chemical Industries, Ltd.) was added thereto, and the mixture was soaked in a water bath at 25° C. under light-tight conditions, and incubated for 15 hours with occasional stirring. After 15 hours, each of the samples was filtered through a 0.45 μm centrifugal filter, and then the concentration of each of the components in the filtrate was analyzed using HPLC under the same conditions as those described in Production Example 1 above. The dissolved concentration (w/v %) at 25° C. was thus determined.
The solubility of resveratrol 3-O-α-glucoside was evaluated under the same conditions as those described in Example 18 above, except that a solvent (whose composition is shown in Table 22) containing dipropylene glycol (Asahi Glass Co., Ltd.) was used.

Solubility in water = type: physicochemical; conditions: water
Description: as §1, with “5” for “40”, “1 mL” for “70 mg”, “water” for “a solvent (whose composition is shown in Table 18) containing ethanol (Wako Pure Chemical Industries, Ltd.)”, “20” for “15”, “%) in water” for “%)”

[4] = Storage stability in 30 vol % aqueous ethanol (coloration, residual content); type: physicochemical; conditions: 2 mM in 30 vol % aqueous ethanol, 40° C., light-tight, 6 months; for Residual Content (%): HPLC
Description: Each of resveratrol 3-O-α-glucoside (produced in Production Example 1), resveratrol (Tokyo Chemical Industry Co., Ltd.), and resveratrol 4′-O-α-glucoside (produced in Production Example 1) was dissolved in a 30 vol % aqueous solution of ethanol to a concentration of 2 mM, and the solution was stored at 40° C. under light-tight conditions. The coloration of the solution after being stored for 6 months was visually observed. Further, absorbances at 430 nm of the solution before and after the storage were measured, and the residual amount of each of the components in the solution was analyzed using HPLC. HPLC was performed under the same conditions as those described in Production Example 1.

Row | SMILES | Relative Amount of Melanin [1] [%] | Concentration in the Skin Model (Value Converted into the Equivalent of Aglycones, μg/cm^2) [2] [μg/cm^2] | solubility thermodynamic at 15 h [3] [µg/mL] | solubility thermodynamic at 20 h (Solubility in water; 25 °C, thermodynamic from solid) [µg/mL] | Coloration: Difference between Absorbances at 430 nm (Δ A 430) before and after Storage [4] | Coloration: Visual Observation [4] | Residual Content (%) [4] [%] | Dissolved Concentration (μg/mL) in Water (Solubility in water; 25° C., 20 hours) [µg/mL]
1 | Oc1ccc(C=Cc2cc(O)cc(O)c2)cc1 [Resveratrol, resveratrol] | 63 | 7.5 | 30 (≈ 131 µM) | 30 (≈ 131 µM) | 1.36 | strongly | 60 | 
2 | OC[C@H]1O[C@H](Oc2ccc(C=Cc3cc(O)cc(O)c3)cc2)[C@H](O)[C@@H](O)[C@@H]1O [Resveratrol 4′-O-α-Glucoside, resveratrol 4′-O-α-glucoside] |  |  |  |  | 0.21 | slightly colored | 86 | 150
